The values that follow come from PubChem BioAssay (NCI).

Each structure is given as a SMILES string. Values joined by “and” are separate entries in the source; they are usually repeats but may differ in a detail not shown here. Equal entries are not always repeated.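 Step 1: Grow cells in 96-well plates. Step 2: Expose to compound for 48 hours at 5 concentrations. Step 3: Interpolate endpoints linearly; if unreached, use highest concentration. Abbreviation: GI50, concentration required for 50% inhibition of growth. TGI is the concentration that stops growth completely.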

Some test systems named below: 786-0 renal; MALME-3M melanoma; MDA-MB-231 breast; SNB-19 CNS; MCF7 breast; EKVX NSCLC; SK-MEL-2 melanoma; T-47D breast; KM12 colon; TK-10 renal.
Holding throughout (test): NCI-60 cell line screen, 48 h

Turning to `CC/C=C\C[C@H](F)C/C=C1/C(=O)C=C[C@@H]1C/C=C\CCCC(=O)OC`, the GI50 in the assay on 786-0 renal was 2.56 µM; with MALME-3M melanoma, 2.03 µM; with MDA-MB-231 breast it was 1.91 µM; in the assay on SNB-19 CNS, 2.35 µM; in the assay with MCF7 breast it was 1.02 µM; with EKVX NSCLC it was 5.17 µM. Further, the GI50 in the assay with SK-MEL-2 melanoma is 4.88 µM; in the assay on T-47D breast, 1.42 µM; in the assay on KM12 colon, 1.26 µM; in the assay with TK-10 renal it was 7.09 µM. For the same molecule, the TGI in the assay with 786-0 renal came out at 9.55 µM; in the assay on MALME-3M melanoma it was 8.7 µM; in the assay with MDA-MB-231 breast it was 6.7 µM; in the assay with SNB-19 CNS, 9.23 µM; in the assay on MCF7 breast, 7.05 µM; in the assay with EKVX NSCLC, 12 µM. Moreover, the TGI with SK-MEL-2 melanoma was found to be 13 µM; in the assay on T-47D breast, 5.57 µM; with KM12 colon it was 3.43 µM; in the assay with TK-10 renal, 16.2 µM.

For the molecule `CCN(CC)CCCC(C)Nc1ccnc2cc(Cl)ccc12` (stereo not drawn), the GI50 in the assay on 786-0 renal is 67.2 µM; in the assay on MDA-MB-231 breast, greater than 100 µM; in the assay with SNB-19 CNS it was greater than 100 µM; in the assay on MCF7 breast it was 63.9 µM; in the assay with SK-MEL-2 melanoma, greater than 100 µM; with T-47D breast it was greater than 100 µM. Besides, the GI50 in the assay on KM12 colon is 79.5 µM; with TK-10 renal, 42.1 µM. Further, the TGI in the assay with 786-0 renal was > 100 µM and 23.9 µM; with MALME-3M melanoma, 48.7 µM and 35.7 µM; with MDA-MB-231 breast, > 100 µM and 73.4 µM; in the assay on SNB-19 CNS, greater than 100 µM; in the assay with MCF7 breast, > 100 µM and 42.3 µM; in the assay on EKVX NSCLC, greater than 100 µM. Besides, the TGI in the assay with SK-MEL-2 melanoma is > 100 µM and 14.9 µM; with T-47D breast, > 100 µM and 64.1 µM; in the assay with KM12 colon, greater than 100 µM; with TK-10 renal, greater than 100 µM.

As to `CC1=C2CC(C)(C)/C=C\C(=O)/C(C)=C\C3=C[C@H](C)C[C@]3(O2)C1=O`, the TGI with 786-0 renal came to 1.25 µM; with MALME-3M melanoma it was 2.34 µM; in the assay on MDA-MB-231 breast it was 9.33 µM; with SNB-19 CNS it was 37.2 µM; with MCF7 breast, 2.14 µM; with EKVX NSCLC, 6.15 µM. The TGI in the assay on SK-MEL-2 melanoma came to 7.69 µM; in the assay with T-47D breast, 1.65 µM; in the assay on KM12 colon, 6 µM; in the assay with TK-10 renal, 5 µM.

For the molecule `C[C@@]1(C(=O)O)CCC[C@]2(C)C1CC[C@@]13C[C@@](O)(CC[C@]12O)[C@@]1(CO1)C3` (stereo partly drawn), the GI50 with 786-0 renal, in the assay on MALME-3M melanoma, with MDA-MB-231 breast, in the assay with SNB-19 CNS, in the assay on MCF7 breast and in the assay on EKVX NSCLC was greater than 100 µM each time. In addition, the GI50 in the assay with SK-MEL-2 melanoma, with T-47D breast, in the assay on KM12 colon and in the assay on TK-10 renal was greater than 100 µM each time. In addition, the TGI with 786-0 renal, in the assay on MALME-3M melanoma, in the assay with MDA-MB-231 breast, in the assay with SNB-19 CNS, in the assay on MCF7 breast and with EKVX NSCLC was greater than 100 µM each time. Also, the TGI in the assay with SK-MEL-2 melanoma, in the assay with T-47D breast, in the assay on KM12 colon and in the assay with TK-10 renal was greater than 100 µM each time.

For `O=c1c2ccc(S(=O)(=O)c3ccc4c(=O)n5c6ccccc6nc5c5cccc3c45)c3cccc(c32)c2nc3ccccc3n12`, the TGI with 786-0 renal was greater than 100 µM; in the assay on MALME-3M melanoma, greater than 100 µM; in the assay on MDA-MB-231 breast, 59.9 µM; in the assay on SNB-19 CNS, 37.9 µM; with MCF7 breast, greater than 100 µM; in the assay on EKVX NSCLC, greater than 100 µM. Moreover, the TGI was 65.6 µM with SK-MEL-2 melanoma, 99.3 µM in the assay with T-47D breast, greater than 100 µM with KM12 colon and 50.3 µM in the assay with TK-10 renal.

As for `C=C(CN1CCN(c2ccc(C(F)(F)F)cc2)CC1)c1ccc(C(=O)Nc2ccccc2N)cc1`, the GI50 is 2.85 µM in the assay with 786-0 renal; 19.3 µM in the assay on MALME-3M melanoma; 3.6 µM in the assay with MDA-MB-231 breast; 12.5 µM in the assay on SNB-19 CNS; 10.9 µM in the assay with MCF7 breast; 12.3 µM in the assay with EKVX NSCLC. Also, the GI50 was greater than 100 µM in the assay with SK-MEL-2 melanoma, 21.8 µM in the assay with T-47D breast, 7.64 µM with KM12 colon and 21 µM in the assay on TK-10 renal. Besides, the TGI in the assay with 786-0 renal was greater than 100 µM; in the assay with MALME-3M melanoma, greater than 100 µM; with MDA-MB-231 breast it was greater than 71.3 µM; in the assay on SNB-19 CNS, 73.5 µM; in the assay with MCF7 breast, greater than 100 µM; with EKVX NSCLC, greater than 100 µM. For the same molecule, the TGI in the assay on SK-MEL-2 melanoma was greater than 100 µM; with T-47D breast, greater than 100 µM; in the assay on KM12 colon, greater than 100 µM; with TK-10 renal it was greater than 82.4 µM.

For `O=C(O)[C@H](Cc1c[nH]c2ccccc12)N1C(=O)c2ccccc2C1=O`, the TGI in the assay on 786-0 renal, in the assay on MALME-3M melanoma, in the assay with MDA-MB-231 breast, with SNB-19 CNS, in the assay with MCF7 breast and with EKVX NSCLC was greater than 100 µM throughout. The TGI with SK-MEL-2 melanoma, in the assay on T-47D breast, in the assay with KM12 colon and in the assay on TK-10 renal was greater than 100 µM throughout.

Regarding `NC(N)=NCC1CCCCCCN1` (stereo not drawn), the TGI in the assay with 786-0 renal, in the assay with MALME-3M melanoma, in the assay on MDA-MB-231 breast, in the assay with SNB-19 CNS, with MCF7 breast and in the assay on EKVX NSCLC was greater than 100 µM each time. The TGI with SK-MEL-2 melanoma, in the assay on T-47D breast, in the assay with KM12 colon and in the assay on TK-10 renal was greater than 100 µM throughout.

On to `COc1ccc([N+](=O)[O-])c2c(NCCCN(C)C)ccnc12`, for which the TGI is 30.6 µM in the assay on 786-0 renal; 5.62 µM with MALME-3M melanoma; greater than 73.8 µM in the assay with MDA-MB-231 breast; 28.2 µM in the assay on SNB-19 CNS; greater than 38.8 µM in the assay on MCF7 breast; 22.8 µM with EKVX NSCLC. For the same molecule, the TGI in the assay with SK-MEL-2 melanoma was 4.48 µM; with T-47D breast it was 29 µM; with KM12 colon, 24.2 µM; with TK-10 renal, 70.5 µM.

Regarding `CCCCCCCCCCCCCCCCCc1nccn1CCOCCO`, the GI50 in the assay on 786-0 renal was 6.19 µg/mL; in the assay with MALME-3M melanoma, 6.5 µg/mL; with MDA-MB-231 breast it was 4.4 µg/mL; in the assay with SNB-19 CNS, 5.03 µg/mL; in the assay on MCF7 breast, 5.65 µg/mL; in the assay on EKVX NSCLC it was 4.83 µg/mL. In addition, the GI50 in the assay with SK-MEL-2 melanoma was 7.58 µg/mL; in the assay on T-47D breast, 2.99 µg/mL; in the assay on KM12 colon, 6.06 µg/mL; with TK-10 renal, 5.31 µg/mL. For the same molecule, the TGI with 786-0 renal was determined as 11.7 µg/mL; in the assay on MALME-3M melanoma, 13.2 µg/mL; in the assay on MDA-MB-231 breast, 9.29 µg/mL; in the assay with SNB-19 CNS it was 10.3 µg/mL; with MCF7 breast it was 11.4 µg/mL; in the assay on EKVX NSCLC it was 10.3 µg/mL. Also, the TGI amounted to 14 µg/mL in the assay on SK-MEL-2 melanoma, 8.99 µg/mL with T-47D breast, 11.4 µg/mL in the assay with KM12 colon and 10.4 µg/mL in the assay with TK-10 renal.

On to `CO[C@H]1C=CO[C@@]2(C)Oc3c(C)c(O)c4c(O)c(c(CN5CCN(C)CC5)c(O)c4c3C2=O)NC(=O)/C(C)=C\C=C[C@H](C)[C@H](O)C(C)[C@@H](O)C(C)[C@H](OC(C)=O)[C@@H]1C` (stereo partly drawn), for which the TGI with 786-0 renal is greater than 100 µM; in the assay with MALME-3M melanoma it was greater than 100 µM; in the assay on MDA-MB-231 breast, greater than 100 µM; in the assay on SNB-19 CNS, greater than 100 µM; with MCF7 breast, 33.7 µM; in the assay on EKVX NSCLC it was greater than 100 µM. Moreover, the TGI in the assay on SK-MEL-2 melanoma, in the assay on T-47D breast, in the assay on KM12 colon and in the assay with TK-10 renal was greater than 100 µM throughout.

In the case of `CC1=CC(C)=NN=C(N)N1S(=O)(=O)c1cc(C)c(Cl)cc1SCc1ccccc1`, the GI50 is 73.4 µM in the assay with 786-0 renal; 49.1 µM in the assay on MALME-3M melanoma; greater than 100 µM with MDA-MB-231 breast; 30.3 µM in the assay with SNB-19 CNS; 13.3 µM with MCF7 breast; 6.08 µM in the assay on EKVX NSCLC. For the same molecule, the GI50 is 37.2 µM in the assay with SK-MEL-2 melanoma, 4.21 µM with T-47D breast, 34.6 µM with KM12 colon and greater than 100 µM in the assay with TK-10 renal. Besides, the TGI in the assay on 786-0 renal, in the assay with MALME-3M melanoma, in the assay on MDA-MB-231 breast, with SNB-19 CNS, with MCF7 breast and with EKVX NSCLC was greater than 100 µM throughout. The TGI in the assay with SK-MEL-2 melanoma is greater than 100 µM; in the assay on T-47D breast, 79.1 µM; in the assay with KM12 colon, greater than 100 µM; in the assay with TK-10 renal, greater than 100 µM.

`CC(=O)OC1CCC2(C)C(CCC3C2CC(=O)C2(C)C3CC(N3CC3)C2C(C)=O)C1` (stereo not drawn): the TGI in the assay on 786-0 renal worked out at 64.4 µM; with MALME-3M melanoma it was 36.5 µM; with MDA-MB-231 breast, 38.1 µM; with SNB-19 CNS it was 63.4 µM; in the assay with MCF7 breast, 47.1 µM; in the assay on EKVX NSCLC it was 40.9 µM. The TGI in the assay on SK-MEL-2 melanoma was 36.1 µM; in the assay on T-47D breast, 65.2 µM; in the assay on KM12 colon, 43.4 µM; in the assay with TK-10 renal it was 45.3 µM.
